Where only a bound is given, the exact number is not on record here.

A short description of data set [1]: In vitro intrinsic clearance in human hepatocytes. In kind it is in vitro ADME. Particulars: 1 μM substrate, human hepatocytes 0.5 million viable cells per mL, 37° C. The protocol: Test Compounds (Example 1-3 and Comparative-Compounds 1-4) were prepared as solutions in DMSO at 3 mM which were then diluted in media containing WEM. The final concentration of DMSO in the incubation was 0.03% (v/v). The in vitro half-life (t½) of each compound was determined in incubations containing substrate (1 μM), human hepatocytes (0.5 million viable cells per mL final concentration) in media containing WEM, 50 mM HEPES buffer (pH 7.4), and 26 mM sodium bicarbonate at 37° C. (all final concentrations) in a 96-well plate. The reaction mixture was pre-warmed at 37° C. for 30 min prior to the initiation of the incubation. The incubation was quenched with acetonitrile containing internal standards at the following time points: 0, 5, 15, 30, 60, 120, and 240 min (individual incubation plates per time point). The samples were vortexed followed by centrifugation. An aliquot of supernatant was transferred to a clean 96-well plate and analyzed by LC/MS-MS using multiple reaction monitoring. For control experiments, hepatocytes were omitted from the incubations.
The hepatocyte t½ (min) was obtained from a log-linear plot of the substrate depletion versus incubation time and was scaled to hepatic intrinsic clearance (CLint,app (μL/min/million cells) using the following equation: […]

Data set [2] is described as follows: Dog intravenous pharmacokinetic study. It counts as in vivo, Male beagle dogs. Particulars: male, beagle, IV dose of 1 mg/kg, plasma, read-out: Dog t1/2 (converted). The protocol:
The pharmacokinetic studies in dog were conducted at Pfizer Global Research and Development (Groton, Conn.). All in vivo studies were conducted in accordance with regulations and established guidelines using protocols reviewed and approved by the Pfizer Worldwide Research and Development (WRD, or other) Institutional Animal Care and Use Committee.
Male beagle dogs were fasted overnight with water provided ad libitium. The dogs were fed at approximately 2-4 h post-dose. The dogs (n=2) were administered an IV bolus via the cephalic vein. Compounds of Examples 1-3 were tested along with the following four comparative compounds.
All test compounds were administered an IV dose of 1 mg/kg of the specified compound which was delivered in a dose volume of 0.5 mL/kg. The dose solution was formulated in 10% PEG400/90% of 23% (w/v) HPBCD in de-ionized water for the following test compounds: Example 1, Example 2, and Example 3; in 20% SBECD (sulfobutyl either β-cyclodextrin) for Comparative-Compound 3; in 23% (w/v) HPBCD (hydroxypropyl β-cyclodextrin) in water for Comparative Compound 2; in 12.5.% SBECD in water with 0.25% 0.1N HCl to pH 5 for Comparative Compound 1. Serial blood samples were collected from each dog via the jugular vein prior to dose administration and at the following time points post-dose: 0.083, 0.25, 0.5, 1, 2, 4, 7, and 24 h for all compounds with an additional time point of 0.016 h collected for Comparative Compound 1 only. Blood samples were collected into tubes containing EDTA and placed on wet ice. Following centrifugation to afford plasma, the samples were transferred to polypropylene tubes and stored frozen at −20° C. to −80° C. until analysis.
All plasma samples were quantified via liquid chromatography/tandem mass spectrometry (LC/MS-MS) using multiple reaction monitoring with non-validated methods. The plasma standard curves were generated with species specific plasma. Pharmacokinetic parameters were determined by non-compartmental analysis using Watson LIMS software version 7.4 (Thermo Fisher Scientific, Waltham, Mass.). The area under the concentration versus time curve (AUC) was calculated from the first time point to the last time point with measurable drug concentration using a linear trapezoidal rule. The area under the concentration versus time curve from the first time point to time infinity (AUC(0-inf)) was calculated by extrapolation from the time point where the last measurable concentration occurred to time infinity by dividing the observed concentration at the last time point by the elimination rate constant determined using linear regression of plasma concentration versus time data. The plasma clearance (CLp) was calculated by the equation CLp=dose/AUC(0-inf). The elimination half-life (t½) was calculated using the following equation t1/2=ln 2/k; k is equal to the rate constant of elimination calculated by the least squares of the log transformed data.

The nature of data set [3]: In vitro intrinsic clearance in human liver microsomes (HLM). In kind it is in vitro ADME. Particulars: pH 7.4, 1 μM substrate, NADPH, 37° C., read-out: HLM CLint, app. Here is the method:
Test Compounds (Example 1-3 and Comparative-Compounds 1-4) were prepared as solutions in DMSO. The final concentration of DMSO in the incubation was <0.1% (v/v). […] (all final concentrations) in a 384-well plate. The reaction mixture was pre-warmed at 37° C. for 10 min prior to initiation of the incubation. The incubation was quenched with acetonitrile containing internal standards at the following time points: 1, 4, 7, 12, 20, 25, 45, and 60 min (individual incubation plates per time point) with a subsequent addition of water. The samples were vortexed followed by centrifugation and the supernatant was analyzed by LC/MS-MS using multiple reaction monitoring. For control experiments, NADPH was omitted from the incubations.
The microsomal t½ (min) was obtained from a log-linear plot of the substrate depletion versus incubation time and was scaled to hepatic intrinsic clearance (CLint,app (μL/min/mg protein) using the following equation: […]
For orientation: Liver microsomes are vesicles of endoplasmic reticulum, rich in cytochrome P450 enzymes.

For `O=C(OC(C(F)(F)F)C(F)(F)F)N1CCC2(CC1)C[C@@H](NS(=O)(=O)CC1CC1)CO2` [Example 1, 1,1,1,3,3,3-Hexafluoropropan-2-yl (3R)-3-{[(cyclopropylmethyl)sulfonyl]amino}-1-oxa-8-azaspiro[4.5]decane-8-carboxylate], the “HHEPs CLint, app” value in data set [1] is given as under 4.26 μL/min/million. Besides, the half-life in data set [2] was 16.9 h. For the same compound, the microsomal CLint at 1 μM in data set [3] is under 8 µL/min/mg.

Take `O=C(OC(C(F)(F)F)C(F)(F)F)N1CCC2(CC1)C[C@@H](NS(=O)(=O)C1CC1)CO2` [Example 2, 1,1,1,3,3,3-Hexafluoropropan-2-yl (3R)-3-[(cyclopropylsulfonyl)amino]-1-oxa-8-azaspiro[4.5]decane-8-carboxylate]: the “HHEPs CLint, app” value in data set [1] amounted to 3.46 μL/min/million. Further, the half-life in data set [2] was 40.7 h. For the same compound, in data set [3], the microsomal CLint at 1 μM is under 8 µL/min/mg.

As to `O=C(OC(C(F)(F)F)C(F)(F)F)N1CCC2(CCC(NS(=O)(=O)CC3CC3)CO2)CC1` (stereo not drawn) [Example 3, 1,1,1,3,3,3-Hexafluoropropan-2-yl 3-{[(cyclopropylmethyl)sulfonyl]amino}-1-oxa-9-azaspiro[5.5]undecane-9-carboxylate], the “HHEPs CLint, app” value in data set [1] was under 3.57 μL/min/million. The half-life in data set [2] was 26.3 h. Also, in data set [3], the microsomal CLint at 1 μM is under 8 µL/min/mg.

(Values after patent US20210309669A1, “Heterocyclic Spiro Compounds As MAGL Inhibitors” (Pfizer Inc., priority 2018, published 2021).)
